Experimental data from patent US12344610B2, “APOL1 inhibitors and methods of use” (Maze Therapeutics, Inc., priority 2022, dated 2025).
Like-named read-outs stand apart in the source and are kept apart here.

Experiments:
[1] = system: HEK293 clonal cell line overexpressing APOL1 G1; experiment: APOL1 G1 HEK293 cell rescue assay (Example B3); assay type: cell-based; conditions: geometric mean of at least 2 runs, † = single run, ¥ = concentration at 50% rescue estimated (no sigmoidal curve)
Outline: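 Rescue of cell death caused by APOL1 G1 overexpression was measured in a clonal HEK293 line. Compounds were tested in duplicate on one plate, and EC50s were geometric means across at least two runs on different days. Some values are estimated 50%-rescue concentrations where curve fitting failed.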

[2] = system: Trypanosoma brucei Lister 427 VSG221 with APOL1 G0 recombinant protein; experiment: APOL1 G0 trypanosome cell rescue assay (Example B5); assay type: cell-based; conditions: geometric mean of at least 2 assay runs, † = single assay run
Outline: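 Viability read by CellTiter-Glo luminescence after 20 h co-incubation (37° C, 5% CO2) of 250 trypanosomes/well in modified HMI-9 with test compound (duplicate 11-point, 2-fold dilutions, 0.4% DMSO) and APOL1 protein, […]. Protein: mature residues 28-398, E. coli inclusion-body refolded, tag cleaved, in DDM.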

[3] = Homo sapiens, HEK293, HEK293 clonal line overexpressing APOL1 G1
[4] = Trypanosoma brucei, 20 h, read-out: APOL1 G0 Trypanosome Rescue EC50, Trypanosoma brucei Lister 427 VSG221 with APOL1 G0 recombinant protein, 20 hours, CellTiter-Glo
[5] = read-out: APOL1 G0 Trypanosome Rescue EC50, Trypanosoma brucei Lister 427 VSG221 with APOL1 G0 recombinant protein, 20 hours, CellTiter-Glo
[6] = HEK293 clonal line overexpressing APOL1 G1

Structure (SMILES) | EC50 [1, 3] [nM] | EC50 [2, 4] [nM] | EC50 [2, 5] [nM] | EC50 [1, 6] [nM]
C[C@@H](COc1ccc(S(C)(=O)=O)cc1)N1CCC2(CC1)C(=O)Nc1ccc(Cl)cc12 (single isomer, unassigned) [Compound 10] | 444 | 351 | – | –
C[C@@H](COc1ccc(S(C)(=O)=O)cc1)N1CCC2(CC1)C(=O)Nc1ccccc12 (single isomer, unassigned) [Compound 12] | 1140 | 1930 | – | –
C[C@@H](CN1CCC2(CC1)C(=O)Nc1ccccc12)Oc1ccc(S(C)(=O)=O)cc1 (single isomer, unassigned) [Compound 13] | > 30000 | > 4000 | – | –
O=C1NCC2c3ccc(OCCN4CCC5(CC4)C(=O)Nc4ccc(Cl)cc45)cc3CCN12 (single isomer, unassigned) [Compound 116, (S) or (R)-5-chloro-1′-[2-({3-oxo-1H,2H,3H,5H,6H,10bH-imidazo[4,3-a]isoquinolin-8-yl}oxy)ethyl]-1,2-dihydrospiro[indole-3,4′-piperidin]-2-one] | 234 | – | 149 | –
O=C1NCC2c3ccc(OCCN4CCC5(CC4)C(=O)Nc4ccc(Cl)cc45)cc3CCN12 (single isomer, unassigned) [Compound 117, (R) or (S)-5-chloro-1′-[2-({3-oxo-1H,2H,3H,5H,6H,10bH-imidazo[4,3-a]isoquinolin-8-yl}oxy)ethyl]-1,2-dihydrospiro[indole-3,4′-piperidin]-2-one] | – | – | 309 | 174
N#Cc1ccc2c(c1)C1(CCN(CCOc3ccc4c(c3)CCN3C(=O)NCC43)CC1)C(=O)N2 (single isomer, unassigned) [Compound 120, (R) or (S)-2-oxo-1′-[2-({3-oxo-1H,2H,3H,5H,6H,10bH-imidazo[4,3-a]isoquinolin-8-yl}oxy)ethyl]-1,2-dihydrospiro[indole-3,4′-piperidine]-5-carbonitrile] | – | 807 | – | > 5230
O=C1CCC2c3ccc(OCCN4CCC5(CC4)C(=O)Nc4ccc(Cl)cc45)cc3CCN12 (single isomer, unassigned) [Compound 122, (S) or (R)-5-chloro-1′-[2-({3-oxo-1H,2H,3H,5H,6H,10bH-pyrrolo[2,1-a]isoquinolin-8-yl}oxy)ethyl]-1,2-dihydrospiro[indole-3,4′-piperidin]-2-one] | 188 | 252 | – | –
O=C1CCC2c3ccc(OCCN4CCC5(CC4)C(=O)Nc4ccc(Cl)cc45)cc3CCN12 (single isomer, unassigned) [Compound 123, (R) or (S)-5-chloro-1′-[2-({3-oxo-1H,2H,3H,5H,6H,10bH-pyrrolo[2,1-a]isoquinolin-8-yl}oxy)ethyl]-1,2-dihydrospiro[indole-3,4′-piperidin]-2-one] | – | – | 178 | 232
CC(c1ccc(OCCN2CCC3(CC2)C(=O)Nc2ccc(C#N)cc23)cc1)S(C)(=O)=O (single isomer, unassigned) [Compound 134, (S) or (R)-1′-{2-[4-(1-methanesulfonylethyl)phenoxy]ethyl}-2-oxo-1,2-dihydrospiro[indole-3,4′-piperidine]-5-carbonitrile] | 991 | 851 | – | –
CC(c1ccc(OCCN2CCC3(CC2)C(=O)Nc2ccc(C#N)cc23)cc1)S(C)(=O)=O (single isomer, unassigned) [Compound 135, (R) or (S)-1′-{2-[4-(1-methanesulfonylethyl)phenoxy]ethyl}-2-oxo-1,2-dihydrospiro[indole-3,4′-piperidine]-5-carbonitrile] | – | – | 1080 | 1140
CC(c1c(F)cc(OCCN2CCC3(CC2)C(=O)Nc2ccc(C#N)cc23)cc1F)S(C)(=O)=O (single isomer, unassigned) [Compound 138, (S) or (R)-1′-{2-[3,5-difluoro-4-(1-methanesulfonylethyl)phenoxy]ethyl}-2-oxo-1,2-dihydrospiro[indole-3,4′-piperidine]-5-carbonitrile] | 253 | 326 | – | –
CC(c1c(F)cc(OCCN2CCC3(CC2)C(=O)Nc2ccc(C#N)cc23)cc1F)S(C)(=O)=O (single isomer, unassigned) [Compound 139, (R) or (S)-1′-{2-[3,5-difluoro-4-(1-methanesulfonylethyl)phenoxy]ethyl}-2-oxo-1,2-dihydrospiro[indole-3,4′-piperidine]-5-carbonitrile] | – | – | 335 | 383
CC(c1c(F)cc(OCCN2CCC3(CC2)C(=O)Nc2ccc(Cl)cc23)cc1F)S(C)(=O)=O (single isomer, unassigned) [Compound 142, (S) or (R)-5-chloro-1′-{2-[3,5-difluoro-4-(1-methanesulfonylethyl)phenoxy]ethyl}-1,2-dihydrospiro[indole-3,4′-piperidin]-2-one] | 192 | 63.5 | – | –
CC(c1c(F)cc(OCCN2CCC3(CC2)C(=O)Nc2ccc(Cl)cc23)cc1F)S(C)(=O)=O (single isomer, unassigned) [Compound 143, (R) or (S)-5-chloro-1′-{2-[3,5-difluoro-4-(1-methanesulfonylethyl)phenoxy]ethyl}-1,2-dihydrospiro[indole-3,4′-piperidin]-2-one] | – | – | 41.1 | 125
CN=S(C)(=O)c1ccc(OCCN2CCC3(CC2)C(=O)Nc2ccc(Cl)cc23)cc1 (single isomer, unassigned) [Compound 148, (S) or (R)-5-chloro-1′-(2-{4-[methyl(methylimino)oxo-λ^6-sulfanyl]phenoxy}ethyl)-1,2-dihydrospiro[indole-3,4′-piperidin]-2-one] | 282 | 140 | – | –
CN=S(C)(=O)c1ccc(OCCN2CCC3(CC2)C(=O)Nc2ccc(Cl)cc23)cc1 (single isomer, unassigned) [Compound 149, (R) or (S)-5-chloro-1′-(2-{4-[methyl(methylimino)oxo-λ^6-sulfanyl]phenoxy}ethyl)-1,2-dihydrospiro[indole-3,4′-piperidin]-2-one] | – | – | 117 | 246
CN=S(C)(=O)c1ccc(OCCN2CCC3(CC2)C(=O)Nc2ccc(C#N)cc23)cc1 (single isomer, unassigned) [Compound 151, (S) or (R)-1′-(2-{4-[methyl(methylimino)oxo-λ^6-sulfanyl]phenoxy}ethyl)-2-oxo-1,2-dihydrospiro[indole-3,4′-piperidine]-5-carbonitrile] | ~2500 | 1040 | – | –
CN=S(C)(=O)c1ccc(OCCN2CCC3(CC2)C(=O)Nc2ccc(C#N)cc23)cc1 (single isomer, unassigned) [Compound 152, (R) or (S)-1′-(2-{4-[methyl(methylimino)oxo-λ^6-sulfanyl]phenoxy}ethyl)-2-oxo-1,2-dihydrospiro[indole-3,4′-piperidine]-5-carbonitrile] | – | – | 1050 | > 4170
O=C1Nc2ccc(Cl)cc2C12CCN(CCOc1ccc(C3CCCS3(=O)=O)cc1)CC2 (single isomer, unassigned) [Compound 176, (S) or (R)-2-[4-(2-{5-chloro-2-oxo-1,2-dihydrospiro[indole-3,4′-piperidin]-1′-yl}ethoxy)phenyl]-1λ^6-thiolane-1,1-dione] | 157 | – | 120 | –
O=C1Nc2ccc(Cl)cc2C12CCN(CCOc1ccc(C3CCCS3(=O)=O)cc1)CC2 (single isomer, unassigned) [Compound 177, (R) or (S)-2-[4-(2-{5-chloro-2-oxo-1,2-dihydrospiro[indole-3,4′-piperidin]-1′-yl}ethoxy)phenyl]-1λ^6-thiolane-1,1-dione] | – | – | 260 | 132
CS(=O)(=O)c1ccc(OCCN2CCC3(CC2)C(=O)Nc2c(C#N)cc(Cl)cc23)cc1 [Compound 9, 5-chloro-1′-[2-(4-methanesulfonylphenoxy)ethyl]-2-oxo-1,2-dihydrospiro[indole-3,4′-piperidine]-7-carbonitrile] | ~11500 | > 4000 | – | –
CS(=O)(=O)CCCn1ncc2cc(OCCN3CCC4(CC3)C(=O)Nc3ccc(Cl)cc34)ccc21 [Compound 14, 5-chloro-1′-(2-{[1-(3-methanesulfonylpropyl)-1H-indazol-5-yl]oxy}ethyl)-1,2-dihydrospiro[indole-3,4′-piperidin]-2-one] | 476 | 378 | – | –
O=C1Nc2ccc(Cl)cc2C12CCN(CCOc1ccc3c(cnn3C3COC3)c1)CC2 [Compound 15, 5-chloro-1′-(2-{[1-(oxetan-3-yl)-1H-indazol-5-yl]oxy}ethyl)-1,2-dihydrospiro[indole-3,4′-piperidin]-2-one] | 279 | 336 | – | –
CC(C)n1ncc2cc(OCCN3CCC4(CC3)C(=O)Nc3ccc(Cl)cc34)ccc21 [Compound 16, 5-chloro-1′-(2-{[1-(propan-2-yl)-1H-indazol-5-yl]oxy}ethyl)-1,2-dihydrospiro[indole-3,4′-piperidin]-2-one] | 295 | 267 | – | –
O=C1Nc2ccc(Cl)cc2C12CCN(CCOc1ccc(S(=O)(=O)[C@H]3C[C@@H](O)C3)cc1)CC2 [Compound 17, 5-chloro-1′-[2-(4-{[(cis)-3-hydroxycyclobutyl]sulfonyl}phenoxy)ethyl]-1,2-dihydrospiro[indole-3,4′-piperidin]-2-one] | 160 | 108 | – | –
